The target in one assay is human JAK2 (Homo sapiens (Human), UniProt O60674). Kind of assay: JAK2 kinase domain Alphascreen enzyme screening. Particulars: read-out: JAK2_IC50_nM. It is filed as biochemical. As for the experimental part: (§1) For screening purposes, compounds (in 100% DMSO) were warmed at 37° C. for at least 20 minutes before use. A […] stock was initially made in assay buffer, where the final concentration of DMSO was 0.3%. The stocks were then diluted in 384 well Optiplates (Packard) where the final concentration of the compound was 5 μM.
The kinase domain of human JAK2 was amplified from U937 mRNA using the polymerase chain reaction with the following primers: […]
The JAK2 PCR products were cloned into the pDest20 destination vector (Gibco). The JAK2 plasmid was then transformed into competent DH10Bac cells (Gibco), and the recombinant baculovirus was prepared via Sf9 insect cell transfection.
(§2) Baculovirus preparations from each of the JAK family members were infected into one litre of […] (Spodoptera frugiperda) cells (Invitrogen) grown in SF900II serum free medium (Invitrogen) to a cell density of approximately 2×10^6 cells/ml. Cells were infected with virus at a cell culture to virus stock ratio of 20:1. Cells were harvested and lysed 48 hours post infection. The GST-tagged JAK kinase domains were purified by affinity chromatography on a GSH agarose column (Scientifix).
Alphascreen phosphotyrosine acceptor beads followed by streptavidin donor beads at a concentration of 1/100 in stop buffer were added to each well under subdued light and incubated for 2-3 hours. The Alphascreen plates were read on a Packard Fusion Alpha instrument
(In general: Bead proximity is the source of the signal in Alpha formats.)

In another assay the target is human JAK3 (Homo sapiens (Human), UniProt P52333). Description: JAK3 kinase domain Alphascreen enzyme screening. It is filed as biochemical. Conditions: read-out: JAK3_ IC50_nM. As for the experimental part: as §1
The kinase domain of human JAK3 was amplified from U937 mRNA using the polymerase chain reaction with the following primers: […]
The JAK3 PCR products were cloned into the pDest20 destination expression vector (Gibco). The JAK3 plasmid was then transformed into competent DH10Bac cells (Gibco), and the recombinant baculovirus was prepared via Sf9 insect cell transfection.
as §2
The compounds were then incubated with substrate in the presence of either […] ATP for 60 or 90 minutes. […] (final concentration 111 μM) or substrate-2 substrate with the sequence biotin-[…] [SEQ ID NO: 16] (final concentration 133 μM). Alphascreen phosphotyrosine acceptor beads followed by streptavidin donor beads at a concentration of 1/100 in stop buffer were added to each well under subdued light and incubated for 2-3 hours. The Alphascreen plates were read on a Packard Fusion Alpha instrument

For assay [1], the system named is BaF3 TELJAK cells (BafT_J2). Kind of assay: Cellular screening, BaF3 TELJAK2 cells (Alamar Blue). Conditions: Mus musculus. It is filed as cell-based. The protocol: (§3) For screening purposes, compounds were diluted in 96 well plates at a concentration of 20 μM. Plates were warmed at 37° C. for 30 minutes before the assay was performed.
A TEL/Jak2 fusion was generated by digestion of the TELPCR product with BamH I/Sal I restriction enzymes, digestion of the JAK2 PCR product with Sal I/Not I restriction enzymes, followed by ligation and subcloning of the ligation product into the mammalian expression Vector pTRE 2 (Clontech), which was prepared by digestion with BamH I—Not I restriction enzymes, to give the TEL/Jak2 fusion plasmid pTELJAK2.
(§4) The growth factor dependent myelomonocytic cell line BaF3 bearing the pTET-off plasmid (Clontech) was transfected with either pTELJAK2 or pTELJAK3, and the transfected cells were selected for growth-factor independent cell growth. The BaF3 wild-type cells were cultured in DMEM containing 10% FCS, 10% WEHI 3B conditioned medium. The BaF3 TELJAK cells ([…]) were cultured in DMEM 10% Tet-System Approved FBS (without WEHI 3B conditioned medium).
(§5) Cell suspensions were prepared by harvesting cells from culture (the cells used in this test were in late log phase growth with high viability.) Cells were diluted in the appropriate growth medium, as described above, to 1.1× final concentration (from 50,000 cell/mL to 200,000 cell/mL, depending on cell line).
Compounds to be tested were added (10 μL, 10× final concentration) to a flat bottomed 96-well plate. The cellular suspension (90 μL per well) was then added, and the plate incubated for 48-72 hr at 37° C., 5% CO2. Alamar Blue 10 μL per well was added and the plates returned to the incubator for a further 4-6 hours.
(§6) Result are given in table 2 where +++ is <1 μM, ++ is <5 μM and + is <20 μM

The test system of another assay is BaF3 wild-type cells. Kind of assay: Cellular screening, BaF3 wild-type cells (Alamar Blue). Particulars: Mus musculus, 48-72 hr incubation, read-out: BAF3wt_IC50_μM. It is filed as cell-based. The protocol:
as §3, §4, §5
(§7) Compounds to be tested were added (10 μL, 10× final concentration) to a flat bottomed 96-well plate. The cellular suspension (90 μL per well) was then added, and the plate incubated for 48-72 hr at 37° C., 5% CO2. Alamar Blue 10 μL per well was added and the plates returned to the incubator for a further 4-6 hours. The plates were then read at 544 nm.
as §6

The test system of a further assay is CTLL2. Description: Cellular screening, CTLL2 cells (Alamar Blue). It is filed as cell-based. Particulars: Mus musculus, CTLL-2; 48-72 hr incubation; read-out: CTLL2_IC50_μM. As for the experimental part: as §3, §5, §7, §6
For orientation: Alamar Blue is a resazurin reagent that responds to reducing activity.

In another assay the test system is Ba/F3 TelJAK2 cells. Kind of assay: Subcutaneous tumour model of Ba/F3 TelJAK2 cells in nude mice. Particulars: 5 mg/kg i.v. 3× weekly, after 14 days of dosing, t-test p<0.05. It is filed as in vivo, mouse. The protocol: Dosing commenced 11 days post-tumour cell inoculation, when tumours were palpable (mean tumour volume of 6 mm^3). Tumour dimensions were measured twice weekly.

The mark [2] stands for this setting: BaF3, 48-72 hr incubation, read-out: BafT_J2_IC50_μM.

Read-outs that look alike come from different tables or passages of the source.

Sequence of human JAK2 (O60674 849-1124): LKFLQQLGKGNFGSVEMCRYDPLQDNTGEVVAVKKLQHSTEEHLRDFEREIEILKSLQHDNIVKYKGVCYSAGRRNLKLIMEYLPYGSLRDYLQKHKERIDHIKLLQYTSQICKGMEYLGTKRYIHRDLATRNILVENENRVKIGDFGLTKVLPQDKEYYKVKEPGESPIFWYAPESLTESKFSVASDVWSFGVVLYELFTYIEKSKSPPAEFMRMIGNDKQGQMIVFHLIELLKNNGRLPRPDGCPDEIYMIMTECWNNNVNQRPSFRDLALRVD
Sequence of human JAK3 (P52333 822-1111): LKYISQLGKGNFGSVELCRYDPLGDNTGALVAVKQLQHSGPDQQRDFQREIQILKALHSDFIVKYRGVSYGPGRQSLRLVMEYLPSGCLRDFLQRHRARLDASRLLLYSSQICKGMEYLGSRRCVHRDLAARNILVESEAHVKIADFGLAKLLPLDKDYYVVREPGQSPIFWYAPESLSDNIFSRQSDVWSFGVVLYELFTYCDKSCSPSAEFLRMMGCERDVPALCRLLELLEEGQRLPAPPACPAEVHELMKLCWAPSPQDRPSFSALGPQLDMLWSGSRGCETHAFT

As for `CCN1CCC(Oc2ccc(Nc3nccc(-c4ccc(C(=O)NCC#N)cc4)n3)cc2)CC1` [Compound 80, N-(cyanomethyl)-4-(2-(4-(1-ethylpiperidin-4-yloxy)phenylamino)pyrimidin-4-yl)benzamide], the IC50 is under 0.1 µM at human JAK2; under 0.5 µM at human JAK3; under 1 µM in assay [1] (setting [2]); under 5 µM with BaF3 wild-type cells; under 5 µM in the assay with CTLL2.

On to `CS(=O)(=O)N(CC#N)c1ccc(-c2ccnc(Nc3ccc(N4CCOCC4)c(F)c3)n2)cc1` [Compound 81, N-(cyanomethyl)-N-(4-(2-(3-fluoro-4-morpholinophenyl-amino)pyrimidin-4-yl)phenyl)methane-sulfonamide], for which the IC50 on human JAK2 is under 0.1 µM; at human JAK3, over 1 µM; in assay [1] (setting [2]), under 1 µM; in the assay on BaF3 wild-type cells it was under 5 µM; with CTLL2, under 5 µM.

For the compound `CS(=O)(=O)N(CC#N)c1ccc(-c2ccnc(Nc3ccc(N4CCOCC4)c(C#N)c3)n2)cc1` [Compound 82, N-(4-(2-(3-cyano-4-morpholinophenyl-amino)pyrimidin-4-yl)phenyl)-N-(cyanomethyl) methanesulfonamide], the IC50 was under 0.1 µM at human JAK2; over 1 µM on human JAK3; under 1 µM in assay [1] (setting [2]); under 5 µM in the assay with BaF3 wild-type cells; under 5 µM in the assay on CTLL2.

On to `N#CCNC(=O)c1ccc(-c2ccnc(Nc3ccc(N4CCS(=O)(=O)CC4)cc3)n2)cc1` [Compound 89, N-(cyanomethyl)-4-(2-{[4-(1,1-dioxo-1λ^6,4-thiomorpholin-4-yl)phenyl]amino}pyrimidin-4-yl)benzamide], for which the IC50 at human JAK2 was under 0.1 µM; on human JAK3, under 0.5 µM; in assay [1] (setting [2]), under 5 µM; in the assay on BaF3 wild-type cells, under 5 µM; in the assay on CTLL2 it was under 5 µM.

In the case of `N#CCNC(=O)c1ccc(-c2nc(Nc3ccc(N4CCOCC4)cc3)ncc2F)cc1` [Compound 93, N-(cyanomethyl)-4-(5-fluoro-2-(4-morpholinophenyl-amino)pyrimidin-4-yl)benzamide], the IC50 at human JAK2 is under 0.1 µM; on human JAK3 it was under 0.5 µM; in assay [1] (BaF3, read-out: BafT_J2_IC50_μM), under 1 µM; with BaF3 wild-type cells, under 1 µM; with CTLL2, under 1 µM.

Take `CC(=O)O[C@H]1C(=O)[C@@]2(C)[C@H]([C@H](OC(=O)c3ccccc3)[C@]3(O)C[C@H](OC(=O)[C@H](O)[C@@H](NC(=O)c4ccccc4)c4ccccc4)C(C)=C1C3(C)C)[C@]1(OC(C)=O)CO[C@@H]1C[C@@H]2O` [Taxol, reference compound]: the “tumour volumes compared to Vehicle Control Treated Group” value with Ba/F3 TelJAK2 cells is listed as “smaller tumour volumes”.

Source of the values: patent US12570614B2, “Phenyl amino pyrimidine compounds and uses thereof” (GlaxoSmithKline LLC, priority 2007, dated 2026).
